Assay results reported in article PMC9120017, “Inhibition mechanism of the chloride channel TMEM16A by the pore blocker 1PBC” (Nature Communications, 2022).
Like-named read-outs stand apart in the source and are kept apart here.

Molecular target: T1, mouse TMEM16A mutant V543A (Mus musculus, UniProt Q8BHY3, V543A)
T1 construct: expressed in transfected cells; host or cells: HEK293T
T1 sequence (Q8BHY3 1-960 V543A): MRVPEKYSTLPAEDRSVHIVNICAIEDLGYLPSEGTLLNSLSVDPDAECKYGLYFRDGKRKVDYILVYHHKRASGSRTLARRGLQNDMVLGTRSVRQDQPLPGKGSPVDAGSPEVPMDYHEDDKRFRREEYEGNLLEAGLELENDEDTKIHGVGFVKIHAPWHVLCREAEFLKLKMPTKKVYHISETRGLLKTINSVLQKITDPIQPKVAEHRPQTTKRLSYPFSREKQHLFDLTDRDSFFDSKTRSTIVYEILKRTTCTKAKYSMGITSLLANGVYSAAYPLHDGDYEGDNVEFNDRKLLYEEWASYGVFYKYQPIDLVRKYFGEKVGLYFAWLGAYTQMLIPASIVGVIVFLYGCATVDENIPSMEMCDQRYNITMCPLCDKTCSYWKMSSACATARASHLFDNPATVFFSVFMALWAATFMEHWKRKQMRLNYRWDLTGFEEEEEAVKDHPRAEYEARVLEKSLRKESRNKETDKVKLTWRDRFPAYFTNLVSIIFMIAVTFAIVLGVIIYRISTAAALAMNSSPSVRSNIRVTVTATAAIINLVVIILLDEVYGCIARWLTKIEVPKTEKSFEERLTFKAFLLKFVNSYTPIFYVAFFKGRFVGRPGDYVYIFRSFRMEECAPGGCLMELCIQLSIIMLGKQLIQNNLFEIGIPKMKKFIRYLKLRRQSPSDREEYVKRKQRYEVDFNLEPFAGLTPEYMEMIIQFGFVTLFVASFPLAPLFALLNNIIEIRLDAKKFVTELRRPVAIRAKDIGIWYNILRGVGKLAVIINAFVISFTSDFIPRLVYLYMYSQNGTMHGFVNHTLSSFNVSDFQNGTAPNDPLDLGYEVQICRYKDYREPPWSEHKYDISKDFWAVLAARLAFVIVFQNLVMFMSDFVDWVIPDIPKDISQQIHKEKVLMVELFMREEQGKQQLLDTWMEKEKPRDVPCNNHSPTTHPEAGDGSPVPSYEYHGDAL
Test: Inside-out patch recording of 1PBC block, mutant V543A
Format: cell-based
Details: for remaining activity at 100 µM: 100 µM 1PBC
Protocol: HEK293T cells (ATCC CRL-1573) were maintained in Dulbecco’s modified Eagle’s medium (DMEM; Sigma-Aldrich) supplemented with 10 U ml^−1 penicillin, 0.1 mg ml^−1 streptomycin (Sigma-Aldrich), 2 mM L-glutamine (Sigma-Aldrich), and 10% FBS (Sigma-Aldrich) in a humidified atmosphere containing 5% CO2 at 37 °C. HEK293S GnTI^− cells (ATCC CRL-3022) were maintained in HyClone HyCell TransFx-H medium (GE Healthcare) supplemented with 10 U ml^−1 penicillin, 0.1 mg ml^−1 streptomycin, 4 mM L-glutamine, 0.15% poloxamer 188 (Sigma-Aldrich), and 1% FBS in an atmosphere containing 5% CO2 at 185 rpm at 37 °C. The ac splice variant of mouse TMEM16A (UniProt ID: Q8BHY3), mouse TMEM16B (UniProt ID: Q8CFW1), or mouse TMEM16F (UniProt ID: Q6P9J9) bearing a 3C cleavage site, a Venus YFP, a Myc tag, and a Streptavidin-binding peptide (SBP) downstream of the open reading frame in a modified pcDNA3.1 vector (Invitrogen) were used as described previously[21],[31]. Mutations were introduced using a modified QuikChange method[58] and were verified by sequencing.
HEK293T cells were transfected with 3–4 μg DNA per 6 cm Petri dish using the calcium phosphate co-precipitation method and were used within 24–96 h after transfection. Recordings were performed on inside-out patches excised from HEK293T cells expressing the construct of interest. Patch pipettes were pulled from borosilicate glass capillaries (O.D. 1.5 mm, I.D. 0.86 mm, Sutter Instrument) and were fire-polished with a microforge (Narishige) before use. Pipette resistance was typically 3–8 MΩ when filled with the recording solutions detailed below. Seal resistance was typically 4 GΩ or higher. Voltage-clamp recordings were made using Axopatch 200B, Digidata 1550, and Clampex 10.7 (Molecular Devices). Analog signals were filtered with the in-built 4-pole Bessel filter at 10 kHz and were digitized at 20 kHz. Solution exchange was achieved using a gravity-fed system through a theta glass pipette mounted on an ultra-fast piezo-driven stepper (Siskiyou). […] All recordings were performed at 20 °C.
A symmetrical ionic condition was used throughout. Stock solution with Ca^2+-EGTA contained 150 mM NaCl, 5.99 mM Ca(OH)2, 5 mM EGTA, and 10 mM HEPES at pH 7.40. Stock solution with EGTA contained 150 mM NaCl, 5 mM EGTA, and 10 mM HEPES at pH 7.40. Free Ca^2+ concentrations were adjusted by mixing the stock solutions at the required ratios calculated using the WEBMAXC program (http://web.stanford.edu/~cpatton/webmaxcS.htm). Patch pipettes were filled with the stock solution with Ca^2+-EGTA, which has a free Ca^2+ concentration of 1 mM. 1PBC (ChemBridge) stock was reconstituted in anhydrous DMSO (Sigma-Aldrich) at 100 mM and stored at −20 °C. Working solutions with 1PBC were prepared by serial dilution. Unless otherwise stated, experiments were performed at a saturating Ca^2+ concentration as shown in Supplementary Table 1 and the primary data were corrected for current rundown as described previously[21],[25].
Concentration-response relations, obtained from the ratio of the I-V plots before and after the application of the blocker, were fitted to the Hill equation,1 I/Imax=1/1+IC50/[blocker]^h where I/Imax is the normalized current responses, IC50 defines the concentration at which inhibition is at its half-maximum, and h is the Hill coefficient.

SMILES: N#Cc1c(C(F)(F)F)cc(O)n2c1nc1ccccc12 [1PBC]
- IC50 (0 mV, 15 µM Ca2+): 11.2 µM
- remaining activity at 3 µM (3 µM 1PBC, +80 mV, saturating Ca2+ (15 µM), read-out: I/Imax): 76.2%
- remaining activity at 3 µM (3 µM 1PBC, -80 mV, saturating Ca2+ (15 µM), read-out: I/Imax): 86.2%
- remaining activity at 10 µM (10 µM 1PBC, +80 mV, saturating Ca2+ (15 µM), read-out: I/Imax): 42.8%
- remaining activity at 10 µM (10 µM 1PBC, -80 mV, saturating Ca2+ (15 µM), read-out: I/Imax): 67.5%
- remaining activity at 30 µM (30 µM 1PBC, +80 mV, saturating Ca2+ (15 µM), read-out: I/Imax): 20.1%
- remaining activity at 30 µM (30 µM 1PBC, -80 mV, saturating Ca2+ (15 µM), read-out: I/Imax): 43.8%
- remaining activity at 100 µM (+80 mV, saturating Ca2+ (15 µM), read-out: I/Imax): 6.35%
- remaining activity at 100 µM (-80 mV, saturating Ca2+ (15 µM), read-out: I/Imax): 18.7%
- remaining activity at 3 µM (1PBC 3, 0 mV, read-out: fraction of unblocked current): 79.2%
- remaining activity at 3 µM (1PBC 3, 20 mV, read-out: fraction of unblocked current): 77.2%
- remaining activity at 3 µM (1PBC 3, 40 mV, read-out: fraction of unblocked current): 76.3%
- remaining activity at 3 µM (1PBC 3, 60 mV, read-out: fraction of unblocked current): 75.5%
- remaining activity at 3 µM (1PBC 3, 80 mV, read-out: fraction of unblocked current): 76.2%
- remaining activity at 3 µM (1PBC 3, 100 mV, read-out: fraction of unblocked current): 78.6%
- remaining activity at 3 µM (1PBC 3, 120 mV, read-out: fraction of unblocked current): 80.1%
- remaining activity at 3 µM (1PBC 3, 140 mV, read-out: fraction of unblocked current): 83.1%
- remaining activity at 3 µM (1PBC 3, -20 mV, read-out: fraction of unblocked current): 81.1%
- remaining activity at 3 µM (1PBC 3, -40 mV, read-out: fraction of unblocked current): 83.5%
- remaining activity at 3 µM (1PBC 3, -60 mV, read-out: fraction of unblocked current): 84.9%
- remaining activity at 3 µM (1PBC 3, -80 mV, read-out: fraction of unblocked current): 86.2%
- remaining activity at 3 µM (1PBC 3, -100 mV, read-out: fraction of unblocked current): 87.3%
- remaining activity at 3 µM (1PBC 3, -120 mV, read-out: fraction of unblocked current): 88.4%
- remaining activity at 3 µM (1PBC 3, -140 mV, read-out: fraction of unblocked current): 89.4%
- remaining activity at 10 µM (1PBC 10, 0 mV, read-out: fraction of unblocked current): 52.5%
- remaining activity at 10 µM (1PBC 10, 20 mV, read-out: fraction of unblocked current): 48.7%
- remaining activity at 10 µM (1PBC 10, 40 mV, read-out: fraction of unblocked current): 45.6%
- remaining activity at 10 µM (1PBC 10, 60 mV, read-out: fraction of unblocked current): 43.7%
- remaining activity at 10 µM (1PBC 10, 80 mV, read-out: fraction of unblocked current): 42.8%
- remaining activity at 10 µM (1PBC 10, 100 mV, read-out: fraction of unblocked current): 43.3%
- remaining activity at 10 µM (1PBC 10, 120 mV, read-out: fraction of unblocked current): 44.7%
- remaining activity at 10 µM (1PBC 10, 140 mV, read-out: fraction of unblocked current): 45.8%
- remaining activity at 10 µM (1PBC 10, -20 mV, read-out: fraction of unblocked current): 56.4%
- remaining activity at 10 µM (1PBC 10, -40 mV, read-out: fraction of unblocked current): 60.6%
- remaining activity at 10 µM (1PBC 10, -60 mV, read-out: fraction of unblocked current): 64.3%
- remaining activity at 10 µM (1PBC 10, -80 mV, read-out: fraction of unblocked current): 67.5%
- remaining activity at 10 µM (1PBC 10, -100 mV, read-out: fraction of unblocked current): 70.7%
- remaining activity at 10 µM (1PBC 10, -120 mV, read-out: fraction of unblocked current): 73.2%
- remaining activity at 10 µM (1PBC 10, -140 mV, read-out: fraction of unblocked current): 75.5%
- remaining activity at 30 µM (1PBC 30, 0 mV, read-out: fraction of unblocked current): 27.4%
- remaining activity at 30 µM (1PBC 30, 20 mV, read-out: fraction of unblocked current): 23.9%
- remaining activity at 30 µM (1PBC 30, 40 mV, read-out: fraction of unblocked current): 21.7%
- remaining activity at 30 µM (1PBC 30, 60 mV, read-out: fraction of unblocked current): 20.8%
- remaining activity at 30 µM (1PBC 30, 80 mV, read-out: fraction of unblocked current): 20.1%
- remaining activity at 30 µM (1PBC 30, 100 mV, read-out: fraction of unblocked current): 20.1%
- remaining activity at 30 µM (1PBC 30, 120 mV, read-out: fraction of unblocked current): 21.6%
- remaining activity at 30 µM (1PBC 30, 140 mV, read-out: fraction of unblocked current): 22.4%
- remaining activity at 30 µM (1PBC 30, -20 mV, read-out: fraction of unblocked current): 30.9%
- remaining activity at 30 µM (1PBC 30, -40 mV, read-out: fraction of unblocked current): 34.9%
